# Experimental data taken from US20240279711A1, “MARKER FOR DNA DAMAGE IN PROXIMITY OF TRANSCRIBED GENOMIC LOCI AND METHODS FOR IDENTIFYING AND/OR QUANTIFYING THESE DNA DAMAGES” (FONDAZIONE ISTITUTO ITALIANO DI TECNOLOGIA, priority 2021, published 2024).
# What was measured:
# Format in all cases: cell-based
# [1] = tested on: mCherry-CDK12 recruitment at damaged DNA sites in U2OS cells; experiment: Laser micro-irradiation, time-lapse microscopy of mCherry-CDK12 recruitment to damaged DNA sites; settings: for localisation of CDK12 at laser-damaged sites: 2 hours before laser microirradiation; for recruitment of mCherry-CDK12 at laser-damaged areas: 3 hours before laser micro-irradiation; for localisation of CDK12 at laser-damaged DNA sites: 1 hour before laser microirradiation
# Experimental: FIGS. 6A and 6B show how the recruitment of CDK12 to DDR sites is transcription-dependent. U2OS cells, transfected with mCherry-CDK12 plasmid, were first treated with DRB (100 uM), Triptolide (1 uM) or DMSO (mock) for 3 hours and then micro-irradiated by laser. Selected regions within the nucleus were micro-irradiated with 10 iterations of a laser at 405 nm with 100% power. The cells were subjected to quantitative analysis using time-lapse microscopy.
# U2OS cells were transfected with the mCherry-CDK12 encoding plasmid and treated with THZ531 (100 nM) or DMSO for 24 hours. The cells were previously treated with BrdU for 24 hours to sensitise the DNA to breaks by laser. To generate localised DNA damage, selected regions within the nucleus were micro-irradiated with 10 iterations of a laser at 405 nm with 100% power. The cells were then subjected to time-lapse microscopic analysis. For each condition, at least 30 cells were considered. FIG. 9A reports representative images used for the analysis shown in the graph of FIG. 9B.
# U2OS cells were transfected with mCherry-CDK12 plasmid and pre-treated with KU-55933 (ATMi; 10 μM), VE-821 (ATRi; 10 µM) or DMSO (mock) for 2 hours prior to laser microirradiation. To generate localised DNA damage, selected regions within the nucleus were micro-irradiated with 10 iterations of a laser at 405 nm with 100% power. The cells were subjected to quantitative analysis by time-lapse microscopy. FIG. 10A: representative images used for the analysis shown in the graph in FIG. 10B.
# FIGS. 11A and 11B show how CDK12 recruitment to DDR sites depends on PARP1 activity. U2OS cells were transfected with mCherry-CDK12 plasmid and pre-treated with Olaparib (1 µM), Veliparib (10 μM) or DMSO (mock) for 1 hour before laser microirradiation. To generate localised DNA damage, selected regions within the nucleus were micro-irradiated with 10 iterations of a laser at 405 nm with 100% power. The cells were then subjected to quantitative analysis by time-lapse microscopy.
# U2OS cells were transfected with a vector encoding mCherry-CDK12. Cells were micro-irradiated with a laser beam to induce DNA breaks confined to appropriately selected nuclear areas.
# In order to inhibit RNA-pol2, the cells were pre-treated with either (i) triptolide (a TFIIH inhibitor that blocks the start of transcriptional) or (ii) DRB (5,6-dichlorobenzimidazole riboside, a DSIF inhibitor that prevents transcriptional elongation).
# U2OS cells were transfected with a vector encoding for mCherry-CDK12. Cells were micro-irradiated with a laser beam to induce DNA breaks confined to selected nuclear areas. In order to inhibit CDK12, the cells were pre-treated with THZ531, a covalent inhibitor of CDK12.
# U2OS cells were transfected with a vector encoding for mCherry-CDK12. The cells were micro-irradiated with a laser beam to induce DNA breaks in selected nuclear areas. To inhibit the DDR response, the cells were pre-treated with an ATM inhibitor (KU-55933) or an ATR inhibitor (VE-821).
# U2OS cells, transfected with a vector encoding for mCherry-CDK12, were micro-irradiated with a laser beam to induce DNA breaks confined to selected nuclear areas. To inhibit PARP1, the cells were pre-treated with Olaparib and Veliparib.
# [2] = tested on: mCherry-CDK12 recruitment to programmed DSBs in U2OS-TRE-I-Sce1 cells; experiment: CDK12 recruitment to programmed Sce-1 DSB, co-localisation with γH2A.X; settings: U2OS-TRE-I-SceI cells, doxycycline, 3 hours
# Experimental: FIGS. 7A and 7B show how CDK12 recruitment at a DNA-damaged locus is transcriptionally dependent. U2OS-TRE-I-SceI cells were transfected with plasmid vectors encoding mCherry-CDK12, p-rtTA, YFP-MS2 or I-Sce1. The cells were treated with doxycycline, which is required for the induction of the rtTA transcription factor that activates the transcription of the MS2 reporter gene. RNA-pol2 activity was inhibited by DRB (100 uM) or TRIPTOLIDE (TPL, 1 uM) for 3 hours. The cells were fixed with 4% PFA for 15 minutes and immunostained for γH2A. X. The table in FIG. 7B reports the percentage of cells showing co-localisation between CDK12 and γH2A. X (mean of two experiments).
# U2OS-TRE-I-Sce-1 cells were transfected with plasmids encoding (i) YFP-MS2 (a chimeric gene produced by the MS2 CDNA fused with the YFP cDNA), (ii) mCherry-CDK12 (a chimeric fusion of mCherry and CDK12), (iii) rtTA (a doxycycline-activated transcription factor) and (iv) the restriction enzyme Sce-1. Transcription was activated by the addition of doxycycline and monitored by detecting subcellular positive nuclear foci for YFP signal. Sce-1-induced DSBs were visualised by immunofluorescence staining specific for the phosphorylated form of histone H2Ax (γH2A. X), a marker for DNA break detection and DNA damage response (DDR) signalling pathway activation. […]
# [3] = tested on: mCherry-CDK12 recruitment at endogenous DDR sites in RPE-iCUT cells; experiment: CDK12 recruitment to CRISPR-Cas9 induced DSBs at endogenous loci; settings: DSBs 1 kb and 2 kb upstream of TSS of POLRIB, IFRD2, MCM2, DRB 100 uM, 3 hours before harvesting
# Experimental: RPE iCUT cells, stably expressing inducible CRISPER-Cas9, were transfected with mCherry-CDK12. Cas9 was activated by doxycycline and SHIELD-1 for 16 hours. […] 3 hours before harvesting, the cells were treated with DRB (100 uM). The bar graph reports the percentage of cells showing co-localisation of CDK12 and γH2A. X in the indicated genomic regions (mean of two independent experiments, 40 cells were considered for each region).
# For the site-specific induction of a DSB at selected endogenous genomic loci, we used RPE-iCUT cells: immortalised retinal epithelial cells engineered for CRISPR-CAS9 expression and conditional activation. These cells were transfected with mCherry-CDK12 and a set of sgRNAs (Alt-R-gRNA) designed to induce DBS in three expressed genes (MCM2, IFRD2 and POLRIB), in two regions upstream of their site of transcriptional onset (TSS), or designed to induce DSB in two genomic regions distal to transcribed loci. The induction of DSBs by CRISPR-Cas9 was assessed by immunofluorescence of γH2A. X, while the recruitment of CDK12 to DNA-damaged sites was assessed by microscopy analysis of mCherry signals. […] As a control, DSBs induced in regions distal to transcribed loci show low levels of CDK12 recruitment (close to the background signal), which are not altered by RNA-pol2 inhibitors (FIG. 8).
# [4] = tested on: MS2 reporter transcription in U2OS-TRE-I-Sce1 cells; experiment: MS2 reporter gene transcription at damaged locus (YFP-MS2 / pCherry-tTA-ER co-localisation); settings: +SceI, OHT, THZ531 for 24 h
# Source text: The fixed cells were processed to detect the γH2A. X signal by immunofluorescence. […] U2OS-TRE-I-Sce1 cells were transfected with plasmids encoding (i) YFP-MS2 (a chimeric gene produced from MS2 cDNA fused with YFP cDNA), (ii) mCherry-tTA-ER and (iii) the restriction enzyme Sce-1. Transcription was activated by addition of OHT and monitored by detecting positive nuclear foci for YFP signal. Sce1-induced DSBs were visualised by immunofluorescence staining of the phosphorylated form of the histone H2Ax (γH2A. X), a marker for DNA break detection and DNA damage response (DDR) signalling pathway activation.
compound,measurement,setting,value
O=c1cc(-c2cccc3c2Sc2ccccc2S3)oc(N2CCOCC2)c1 [KU-55933],localisation of CDK12 at laser-damaged sites,[1]; KU-55933 (ATMi) 10 μM,Neither of the two inhibitor affected the localisation of CDK12 at the damaged sites
"OC[C@H]1O[C@@H](n2cnc3cc(Cl)c(Cl)cc32)[C@H](O)[C@@H]1O [DRB, 5,6-dichlorobenzimidazole riboside]",recruitment of mCherry-CDK12 at laser-damaged areas,[1]; DRB 100 uM,prevents the recruitment of mCherry-CDK12 at damaged areas
same,recruitment of mCherry-CDK12 at Sce-1 damaged locus,[2]; DRB 100 uM,prevents the recruitment of mCherry-CDK12 at damaged areas
same,CDK12 recruitment to DDR foci proximal to promoters,[3],reduced its recruitment to damaged foci
CC(C)[C@]12O[C@H]1[C@@H]1O[C@]13[C@]1(O[C@H]1C[C@H]1C4=C(CC[C@@]13C)C(=O)OC4)[C@@H]2O [triptolide],recruitment of mCherry-CDK12 at laser-damaged areas,[1]; Triptolide 1 uM,prevents the recruitment of mCherry-CDK12 at damaged areas
same,recruitment of mCherry-CDK12 at Sce-1 damaged locus,[2]; TRIPTOLIDE 1 uM,prevents the recruitment of mCherry-CDK12 at damaged areas
O=C(c1cc(Cc2n[nH]c(=O)c3ccccc23)ccc1F)N1CCN(C(=O)C2CC2)CC1 [Olaparib],localisation of CDK12 at laser-damaged DNA sites,[1]; Olaparib 1 µM,inhibited the localisation of CDK12 at damaged DNA sites
CS(=O)(=O)c1ccc(-c2cnc(N)c(C(=O)Nc3ccccc3)n2)cc1 [VE-821],localisation of CDK12 at laser-damaged sites,[1]; VE-821 (ATRi) 10 µM,Neither of the two inhibitor affected the localisation of CDK12 at the damaged sites
CN(C)C/C=C/C(=O)Nc1ccc(C(=O)N2CCC[C@@H](Nc3ncc(Cl)c(-c4c[nH]c5ccccc45)n3)C2)cc1 [THZ531],recruitment of CDK12 at DDR foci (laser),"[1]; THZ531 100 nM, 24 hours, BrdU pre-sensitised",did not affect the recruitment of CDK12 at DDR foci
same,MS2 reporter expression at damaged locus,[4],reactivated MS2 reporter expression
C[C@]1(c2nc3c(C(N)=O)cccc3[nH]2)CCCN1 [Veliparib],localisation of CDK12 at laser-damaged DNA sites,[1]; Veliparib 10 μM,inhibited the localisation of CDK12 at damaged DNA sites
